Non-standard residues stand in square brackets, D forms with d. pGlu = O=C1CC[C@@H](C(=O)O)N1
How the values were obtained:
Assay type in all cases: cell-based, human
[1] = test system: gluten-reactive T cells; experiment: 96-well plate whole blood cytokine release, IFNγ by MAGPIX multiplex bead assay; settings: n = 8, blood after oral gluten challenge, individual peptides 5 μM (Peptide 2* of P14, Pepscan: 10 μg/mL (5.45 μM))
[2] = test system: gluten-reactive T cells; experiment: 96-well plate whole blood cytokine release, IP-10 by MAGPIX multiplex bead assay; settings: for Percent of maximal response to individual gluten peptides, IP-10: after oral gluten challenge; for IP-10 WB MAGPIX % max Mean: n = 10, blood after oral gluten challenge, individual peptides 5 μM (Peptide 2* of P14, Pepscan: 10 μg/mL (5.45 μM))
[3] = test system: gluten-reactive T cells; experiment: Cytokine release assays taken together (IFNγ ELISpot, whole blood IFNγ and IP-10, in-tube IFNγ ELISA); settings: blood collected after oral gluten challenge
Experimental: Gluten peptide solutions for addition to whole blood were arranged according to standardized templates in sterile 96-well U-bottom plates (30 μL/well). Plates were sealed with adhesive ELISA plate cover slips before the plastic lid was replaced and being frozen at −80° C. Whole blood assay (WBA) “medium” (1% DMSO in 90% PBS and 9% normal saline), mitogen (PHA-L, Sigma-Aldrich #L2769; St Louis Mo.) 100 μg/ml in WBA medium, and CEF diluted to 10 μg/ml in PBS with a final concentration of 1% DMSO were frozen separately in sterile cryovials. 96-well plates and cryovials with frozen incubation solutions were shipped on dry ice to the clinical site where blood was collected and incubations performed. Solutions were thawed at room temperature for 10 min just before being added to whole blood. 96-well plates were thawed while being centrifuged at 300 g to avoid surface condensation. A multi-channel pipette was used to efficiently transfer 25 μL of peptide solutions from the original 96-well plate to corresponding wells in a fresh sterile 96-well U-bottom plate. Once incubation solutions had been added, 225 μL of whole blood was added to each well and the plate transferred to incubate for 24 h at 37° C. 5% CO2. […] Individual peptides were incubated at a final assay concentration of 51.1M. Final concentrations of individual peptides assessed in P3 was 0.05-50 μg/mL, and in P14 and P13 pools 0.025-25 μM. The P71 pool was tested at between 0.005-10 pg/mL, the highest tested concentration being the maximal possible not exceeding 0.1% DMSO. Peptide pools, mitogen, and medium only were assessed in triplicate wells, and on Day-6 individual peptides were assessed in duplicate wells. Incubations were terminated after 24 h, and 96-well plates centrifuged at 300 g for 10 min. A total of approximately 90 to 120 μL of plasma was removed from each well taking care to avoid red cell contamination, and transferred into corresponding wells of two further 96-well plates (one with 30 μL/well and the residual in the second plate). Plasmas were frozen at −80° C. and later shipped on dry ice to the central lab where IP-10 and IFNγ multiplex bead assays were performed according to manufacturer's instructions using 25 μL plasma per well (Milliplex® MAP Human Cytokine/Chemokine Magnetic Bead Panel #HCYTOMAG-60k-02; EMD Millipore Corp., Billerica, Mass. 01821) and analysed with the Luminex® MAGPIX® System xPONENT® software (Luminex Corporation, Austin Tex. 78727). Plasma cytokine levels for each assay condition were expressed as the mean analyte concentration of each of the three replicate incubations. Laboratory staff were unaware of the arrangement of peptide solutions incubated with during assay setup and plate counting.
Aliquots of PBS, P3 peptides diluted in PBS (final concentration in blood 3× 50 or CEF to a final concentration 1 μg/mL were prepared in sterile cryovials (0.11 mL/vial) and stored frozen (−80° C.) until immediately before use. P3, CEF and two PBS aliquots were drawn up in separate sterile 0.3 mL insulin syringes with attached 29G×½″ needle (Terumo, SS*30M2913; Elkton Md. 21921). P3, CEF and one PBS aliquot was injected through the stoppers of three separate QuantiFERON® NIL tubes already containing 1 mL blood, and one aliquot of PBS was injected into a QuantiFERON® MITOGEN tube already containing 1 mL blood. All four tubes containing blood and incubation solution were gently inverted ten-times and transferred to incubate at 37° C. 5% CO2. After for 24 h, tubes were centrifuged 300 g 10 min. Plasma was separated and equal volumes placed in two 1.5 mL cryovials. Frozen plasmas were transferred to the central lab where IFNγ levels were measured in triplicate 50 μL samples by ELISA (MABtech Human IFN-γ ELISA development kit HRP, 3420-1H-6; capture mAb 1-D1K). […]

[4] = test system: gluten-reactive T cells; experiment: Overnight IFNγ ELISpot assay with fresh PBMC; settings: n = 5, blood after oral gluten challenge, individual peptides 5 μM (Peptide 2* of P14, Pepscan: 10 μg/mL (5.45 μM))
Experimental: HLA-DQ2.5-positive celiac disease subjects on gluten-free diet were used in this study. Blood was collected immediately before and 6 days after commencing 3-day oral gluten challenge. Whole blood or PBMCs were incubated with pools or single peptides derived from gluten or recall antigens. IFNγ and IP-10 levels were measured in plasma from the whole blood that was incubated in 96-well plates with peptides or peptide pools. Plasma cytokine/chemokine levels were measured by MAGPIX® multiplex bead assay (IFNγ and IP-10) or by ELISA (IFNγ and IP-10), and PBMC separated from the same blood sample were incubated in overnight IFNγ ELISpot assays.
Overnight IFNγ ELISpot assays (Human IFN-γ ELISpotPRO kit, transparent, ALP; Mabtech AB, #3420-2APT-10) were performed using PBMC freshly separated from heparinized blood diluted 1:1 in PBS with 2% fetal bovine serum (Stemcell Technologies #07905; Vancouver, BC, V5Z 1B3, Canada) overlaid on density gradient medium (Ficoll-Paque™ PLUS; GE Healthcare Lice Sciences #:17-1440-02) in SepMate™-50 tubes (Stemcell Technologies #15460). PBMC (8 million/mL) were resuspended in serum-free medium with gentamicin and phenol red (X-VIVO™15; Lonza, Walkersville Mass. 21793). PBMC (0.4 million/50 pt/well) and incubated with 50 μL 80% X-vivo15, 0.2% DMSO and 20% PBS in three triplicate wells (“medium only”), or with 50 μL PHA-L 20 μg/ml or peptide at 2× final concentration in 80% X-vivo15, 0.2% DMSO and 20% PBS. Peptide solutions to be added to individual ELISpot wells were prepared in 96-well U-bottom plates (60 pt/well) that were then sealed with adhesive ELISA plate cover slips before replacing the plastic lid and being frozen at −80° C. 96-well plates containing peptide solutions were thawed at room temperature for 10 min while being centrifuged at 300 g immediately prior to being added to ELISpot wells. Peptide pools and mitogen were assessed in triplicate wells, and individual peptides were assessed in duplicate wells. X-VIVO™15 (50 μL) was incubated with 80% X-vivo15, 0.2% DMSO and 20% PBS (50 μL) in triplicate wells (“no PBMC” control). A Zeiss automated ELISpot counter was used to determine spot forming units (SFU) per well (Zellnet Inc., Fort Lee, N J 07024). Laboratory staff were unaware of the arrangement of peptide solutions in ELISpot wells during assay setup and plate counting.

With “(pE)QPFPQPEQPFPWQP-amide ([pGlu]QPFPQPEQPFPWQP-NH2; SMILES NC(=O)CC[C@H](NC(=O)[C@H](Cc1c[nH]c2ccccc12)NC(=O)[C@@H]1CCCN1C(=O)[C@H](Cc1ccccc1)NC(=O)[C@@H]1CCCN1C(=O)[C@H](CCC(N)=O)NC(=O)[C@H](CCC(=O)O)NC(=O)[C@@H]1CCCN1C(=O)[C@H](CCC(N)=O)NC(=O)[C@@H]1CCCN1C(=O)[C@H](Cc1ccccc1)NC(=O)[C@@H]1CCCN1C(=O)[C@H](CCC(N)=O)NC(=O)[C@@H]1CCC(=O)N1)C(=O)N1CCC[C@H]1C(N)=O) [Peptide 2, two preparations tested separately: CSBio (5 μM) and Pepscan re-synthesis (10 μg/mL)]” the “IFNγ WB MAGPIX % max Mean” value [1] was 23 % max, the “IFNγ WB MAGPIX % max Mean” value ([1]; listed as Peptide 2*) was 27 % max and the “Percent of maximal response to individual gluten peptides, IP-10” value ([2]; Subject 3, Max. 9492 pg/mL) was ≥ 100 % of max. The “Percent of maximal response to individual gluten peptides, IP-10” value ([2]; Subject 4, Max. 9463 pg/mL) was ≥ 100 % of max, the “IP-10 WB MAGPIX % max Mean” value [2] was 43 % max and the “IP-10 WB MAGPIX % max Mean” value ([2]; listed as Peptide 2*) was 49 % max. The “activity relative to Peptide 14 in the cytokine release assays” value [3] was “approximately one-half to one-fifth as active as Peptide 14”, the “IFNγ ELISpot % max Mean” value [4] was 19 % max and the “IFNγ ELISpot % max Mean” value ([4]; listed as Peptide 2*) was 25 % max.

— patent US20170045513A1, “METHODS OF DIAGNOSING CELIAC DISEASE USING IP-10” (ImmusanT, Inc., priority 2014, published 2017)
